Patent US20160178637A1, “DETECTION OF ALPHA, BETA-DICARBONYL COMPOUNDS WITH FLUOROGENIC PROBES” (THE UNIVERSITY OF WARWICK, priority 2012, published 2016)

Assays:
[1] = Incubation of DAF-2 with the NO donor DETA-nonoate, fluorescence; assay type: physicochemical; conditions: DAF-2 50 μM + DETA-nonoate 10 μM, 10 mM sodium phosphate buffer pH 7.4, 37° C., one hour
Experimental: 4,5-Diaminofluorescein (DAF-2) was a fluorogenic probe developed for the detection of nitric oxide. 4,5-Diaminorhodamine (DAR), 8-(3,4-diaminophenyl)-2,6-bis(2-carboxyethyl)-4,4-difluoro-1,3,5,7-tetramethyl-4-bora-3a,4a-diaza-s-indacene (DAM BO-P″) and o-diaminocyanine are analogous o-diamino derivatizing agents based on different intense fluorophores. DAF-2 reacts with nitric oxide to form the fluorophore triazolofluorescein [6]. For example, incubation of DAF-2 (50 μM) with the NO donor (Z)-1-[2-(2-aminoethyl)-N-(2-ammonioethyl)amino]diazen-1-ium-1,2-diolate (DETA-nonoate), 10 μM, in 10 mM sodium phosphate buffer, pH 7.4 at 37° C., for one hour gave characteristic fluorescence of triazolofluorescein—excitation and emission maximum wavelengths of 491 and 515 nm, respectively. A further metabolite that reacts with DAF-2 is ascorbic acid which forms adducts DAF-2-DHA-5008 and DAF-2-DHA-518 which are fluorescent with excitation and emission wavelength maxima of 490 and 514 nm, respectively.

[2] = system: human leukaemia 60 cells (HL60); test: Fluorescence imaging of MG in isolated human leukaemia cells; assay type: cell-based; conditions: HL60 cells 1×10^5 per ml, DAF-2 10 μM 40 min 37° C., washed, 30-120 min; excitation laser 457 nm, emission filter 470-500 nm

| emission maximum wavelength [1] [nm] | excitation maximum wavelength [1] [nm] | SMILES | fluorescence image of endogenous MG in cells [2] |
| --- | --- | --- | --- |
| 515 | 491 | O=C1OC2(c3ccc(O)cc3Oc3cc(O)ccc32)c2ccc3[nH]nnc3c21 [triazolofluorescein] | – |
| – | – | Nc1cc2c(cc1N)C1(OC2=O)c2ccc(O)cc2Oc2cc(O)ccc21 [DAF-2, 4,5-diaminofluorescein] | fluorescence indicate of the DAF-2 MG adduct |
